Read-outs that look alike come from different tables or passages of the source.
Experiments:
MT-4 cells = test: Cytostatic assay, MT-4; assay type: cell-based; conditions: Homo sapiens, MT4; Table 2
Procedure: (§1) To each well of a 96-well microtiter plate were added 5-7.5×10^4 cells and a given amount of the test compound. The cells were allowed to proliferate for 48 h to 96 h (depending on the nature of the cell line) at 37° C. in a humidified CO2-controlled atmosphere. At the end of the incubation period, the cells were counted in a Coulter Counter (Coulter Electronics Ltd, Harpenden Herts, United Kingdom).

MT-2 cells = test: Cytostatic assay, MT-2; assay type: cell-based; conditions: Homo sapiens, MT2; Table 2
Procedure: as §1

BPH-1 (UZ) = test: Cytostatic assay, BPH-1 (UZ); assay type: cell-based; conditions: Homo sapiens, Table 4
Procedure: as §1

[1] = test system: DNA synthesis in Raji cells; test: Antimetabolic activity assay, [CH3-3H]dThd incorporation (DNA synthesis), Raji; assay type: cell-based; conditions: Homo sapiens, incorporation into TCA-insoluble material
Procedure: [The procedure below names another cell line; the source lists this cell line under the same test.] (§2) Radiolabeled precursors of DNA synthesis ([^3H-methyl]dThd), RNA synthesis ([5-^3H]Urd), and protein synthesis ([4,5-^3H]leu) were added to 10^5 CEM cell cultures in the 200 μl-wells of a microtiter plate at 1 μCi for each precursor in the presence of varying concentrations of the test compounds (5-fold dilution series). The cells were allowed to proliferate for 20 hrs at 37° C. in a humidified, CO2-controlled atmosphere. At the end of the incubation period, the contents of the wells were brought onto 25-mm glass fiber filters and further processed for measurement of acid-insoluble radioactivity.

CEM cells = test: Cytostatic assay, CEM; assay type: cell-based; conditions: Homo sapiens, CCRF-CEM
How it was run: (§3)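 Test compound was added to wells holding 5-7.5×10^4 cells. After line-specific growth periods of 48 h to 96 h at 37° C in a moist atmosphere with regulated CO2, the number of cells was recorded by Coulter counting.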

[2] = test system: HL60, human leukemia cells; test: Cytostatic assay, HL-60; assay type: cell-based; conditions: Table 2
Procedure: as §1

Molt4/C8 cells = test: Cytostatic assay, Molt4/C8; assay type: cell-based; conditions: Table 2
Procedure: as §1

[3] = test system: RNA synthesis in Raji cells; test: Antimetabolic activity assay, [5-3H]uridine incorporation (RNA synthesis), Raji; assay type: cell-based; conditions: Homo sapiens, incorporation into TCA-insoluble material
Procedure: [The procedure below names another cell line; the source lists this cell line under the same test.] as §2

U87 glioma cells = test: Cytostatic assay, U87; assay type: cell-based; conditions: Homo sapiens, U-87 MG; Table 3
Procedure: as §1

Huh-7 hepatoma cells = test: Cytostatic assay, Huh-7; assay type: cell-based; conditions: Homo sapiens, Table 4
Procedure: as §1

[4] = test system: HEL embryonic lung fibroblast cells; test: Cytostatic assay, HEL; assay type: cell-based; conditions: Homo sapiens, Table 3
Procedure: as §1

[5] = test system: 22Rv1 (UZ) prostate cancer cells; test: Cytostatic assay, 22Rv1 (UZ); assay type: cell-based; conditions: Homo sapiens, Table 4
Procedure: as §1

C8166 cells = test: Cytostatic assay, C8166; assay type: cell-based; conditions: Homo sapiens, Table 2
Procedure: as §1

[6] = test system: BAEC aortic endothelial cells; test: Cytostatic assay, BAEC; assay type: cell-based, bovine; conditions: Bos taurus, Table 3
Procedure: as §1

[7] = test system: protein synthesis in CEM cells; test: Antimetabolic activity assay, [4,5-3H]leucine incorporation (protein synthesis), CEM; assay type: cell-based; conditions: Homo sapiens, CCRF-CEM, incorporation into TCA-insoluble material
Procedure: as §2

[8] = test system: Raji, human B-lymphoma cells; test: Cytostatic assay, Raji; assay type: cell-based; conditions: Table 2
Procedure: as §1

[9] = test system: Caki-1 kidney carcinoma cells; test: Cytostatic assay, Caki-1; assay type: cell-based; conditions: Homo sapiens, Table 3
Procedure: as §1

[10] = test system: PNT1A (UZ) prostate cells; test: Cytostatic assay, PNT1A (UZ); assay type: cell-based; conditions: Homo sapiens, Table 4
Procedure: as §1

[11] = test system: FM3A mammary carcinoma cells; test: Cytostatic assay, FM3A; assay type: cell-based, murine; conditions: Mus musculus, Table 3
Procedure: as §1

[12] = test system: DNA synthesis in CEM cells; test: Antimetabolic activity assay, [CH3-3H]dThd incorporation (DNA synthesis), CEM; assay type: cell-based; conditions: Homo sapiens, CCRF-CEM, incorporation into TCA-insoluble material
Procedure: as §2

[13] = test system: MCF-7 mammary carcinoma cells; test: Cytostatic assay, MCF-7; assay type: cell-based; conditions: Homo sapiens, MCF7; Table 3
Procedure: as §1

PLC/PRF/5 hepatoma cells = test: Cytostatic assay, PLC/PRF/5; assay type: cell-based; conditions: Homo sapiens, Table 4
Procedure: as §1

HepG2C3A hepatoma cells = test: Cytostatic assay, HepG2C3A; assay type: cell-based; conditions: Homo sapiens, HepG2/C3A; Table 4
Procedure: as §1

HUT-78 cells = test: Cytostatic assay, HUT-78; assay type: cell-based; conditions: Homo sapiens, HuT78; Table 2
Procedure: as §1

[14] = test system: HeLa cervix carcinoma cells; test: Cytostatic assay, HeLa; assay type: cell-based, human; conditions: Homo sapiens; Table 3; read-out: Cytostatic activity (μM) Hela
How it was run: as §3

[15] = test system: HT29 colorectal carcinoma cells; test: Cytostatic assay, HT29; assay type: cell-based; conditions: Homo sapiens, HT-29; Table 3
Procedure: as §1

[16] = test system: DU145 (UZ) prostate cancer cells; test: Cytostatic assay, DU145 (UZ); assay type: cell-based; conditions: Homo sapiens, DU-145; Table 4
Procedure: as §1

[17] = test system: RNA synthesis in CEM cells; test: Antimetabolic activity assay, [5-3H]uridine incorporation (RNA synthesis), CEM; assay type: cell-based; conditions: Homo sapiens, CCRF-CEM, incorporation into TCA-insoluble material
Procedure: as §2

Sup T1 cells = test: Cytostatic assay, Sup T1; assay type: cell-based; conditions: Homo sapiens, Table 2, read-out: Cytostatic activity (μM) Sup T 1
Procedure: as §1

[18] = test system: PC-3 (UZ) prostate cancer cells; test: Cytostatic assay, PC-3 (UZ); assay type: cell-based; conditions: Table 4
Procedure: as §1

L1210 cells = test: Cytostatic assay, L1210; assay type: cell-based; conditions: Mus musculus, Table 2
Procedure: as §1

[19] = test system: LNCaP (UZ) prostate cancer cells; test: Cytostatic assay, LNCaP (UZ); assay type: cell-based; conditions: Homo sapiens, Table 4
Procedure: as §1

[20] = test system: protein synthesis in Raji cells; test: Antimetabolic activity assay, [4,5-3H]leucine incorporation (protein synthesis), Raji; assay type: cell-based; conditions: Homo sapiens, incorporation into TCA-insoluble material
Procedure: [The procedure below names another cell line; the source lists this cell line under the same test.] as §2

[21] = test system: Caki-2 kidney carcinoma cells; test: Cytostatic assay, Caki-2; assay type: cell-based; conditions: Homo sapiens, Table 3
Procedure: as §1

[22] = test system: PC3 (rega) prostate cancer cells; test: Cytostatic assay, PC3 (rega); assay type: cell-based; conditions: Table 4
Procedure: as §1

[23] = test system: OST TK- osteosarcoma cells; test: Cytostatic assay, OST TK-; assay type: cell-based; conditions: Homo sapiens; Table 3
Procedure: as §1

[24] = test system: 293T embryonic kidney cells; test: Cytostatic assay, 293T; assay type: cell-based; conditions: Homo sapiens, HEK-293T; Table 3
Procedure: as §1

[25] = test system: THP-1, human monocytic cells; test: Cytostatic assay, THP-1; assay type: cell-based; conditions: Table 2
Procedure: as §1

[26] = test system: U937, human monocytic cells; test: Cytostatic assay, U937; assay type: cell-based; conditions: U-937, Table 2
Procedure: as §1

[27] = Table 2, read-out: Cytostatic activity (μM) CEM

IC50 (MT-2 cells) [µM]	IC50 (BPH-1 (UZ)) [µM]	IC50 [1] [µM]	IC50 (CEM cells; [27]) [µM]	IC50 [2] [µM]	IC50 (Molt4/C8 cells) [µM]	IC50 [3] [µM]	IC50 (U87 glioma cells) [µM]	IC50 (Huh-7 hepatoma cells) [µM]	IC50 [5] [µM]	IC50 (C8166 cells) [µM]	IC50 [6] [µM]	IC50 [7] [µM]	IC50 [8] [µM]	IC50 [9] [µM]	IC50 [10] [µM]	IC50 [11] [µM]	IC50 [12] [µM]	SMILES	IC50 (MT-4 cells) [µM]	IC50 [4] [µM]	other results
52 ± 5.7	36 ± 1.4	≥ 100	40 ± 1	62 ± 9.9	18 ± 2.1	82 ± 26	90 ± 14	> 100	16 ± 5.5	102 ± 16	74 ± 26	6.2 ± 7.6	> 100	83 ± 36	42 ± 5.7	49 ± 6	15 ± 3	CCOC(=O)c1cc(-c2ccc(OC)cc2)sc1N [TR525, 2-Amino-5-(4-methoxy-phenyl)-thiophene-3-carboxylic acid ethyl ester]	> 100	43 ± 9.9	IC50 (CEM cells; Table 1a, read-out: IC50 μM (CEM)): 40 µM; IC50 [13]: 81 ± 4.9 µM; IC50 (PLC/PRF/5 hepatoma cells): > 100 µM; IC50 (HepG2C3A hepatoma cells): > 100 µM; IC50 (HUT-78 cells): 117 ± 21 µM; IC50 [14]: 39 ± 4 µM; IC50 [15]: 93 ± 11 µM; IC50 [16]: 41 ± 24 µM; IC50 [17]: 12 ± 5 µM; IC50 (Sup T1 cells): 86 ± 7.1 µM; IC50 [18]: 20 ± 3.5 µM; IC50 (L1210 cells): 44 ± 3 µM; IC50 [19]: 2.3 ± 0.071 µM; IC50 [20]: ≥ 100 µM; IC50 [21]: 159 ± 19 µM; IC50 [22]: 13 ± 9.6 µM; IC50 [23]: 79 ± 2.8 µM; IC50 [24]: > 100 µM; IC50 [25]: 102 ± 2.8 µM; IC50 [26]: 115 ± 19 µM
79 ± 17	74 ± 4.2	≥ 100	20 ± 4	11 ± 2.2	6.8	≥ 100	> 100	28 ± 17	33 ± 0.71	143 ± 32	> 100	23 ± 14	55 ± 12	62 ± 12	45	53 ± 7	68 ± 14	CCOC(=O)c1cc(CCc2ccccc2OC)sc1N [TR542, 2-Amino-5-[2-(2-methoxy-phenyl)-ethyl]-thiophene-3-carboxylic acid ethyl ester]	41 ± 5.7	43 ± 4.9	IC50 [13]: 60 ± 0.7 µM; IC50 (PLC/PRF/5 hepatoma cells): 39 ± 5.7 µM; IC50 (HepG2C3A hepatoma cells): 30 ± 0.71 µM; IC50 (HUT-78 cells): 107 ± 70 µM; IC50 [14]: 45 ± 6 µM; IC50 [15]: > 100 µM; IC50 [16]: 34 ± 7.1 µM; IC50 [17]: 39 ± 32 µM; IC50 (Sup T1 cells): 23 ± 2.1 µM; IC50 [18]: 8.5 ± 3.5 µM; IC50 (L1210 cells): 40 µM; IC50 [19]: 3.8 ± 2.9 µM; IC50 [20]: 94 ± 7 µM; IC50 [21]: 16 ± 10 µM; IC50 [22]: 8.6 ± 3.4 µM; IC50 [23]: 41 ± 0.71 µM; IC50 [24]: > 100 µM; IC50 [25]: 31 ± 13 µM; IC50 [26]: 80 ± 5.7 µM
